Legend:
[1] = molecular target: T1, recombinant human DPP9 (rhDPP9) (Homo sapiens, UniProt Q86TI2); test: DPP9 enzymatic activity assay, 40 ng rhDPP9, HEPES buffer; assay type: biochemical; conditions: Table 3A
T1 construct: purchased R&S system / R&D systems (both sic) 5419-SE

[2] = molecular target: T1, recombinant human DPP9 (rhDPP9); test: DPP9 inhibition assay, 10 ng rhDPP9, Tris-HCl/BSA buffer; assay type: biochemical; conditions: Table 3B
[3] = molecular target: T2, recombinant human PREP (rhPREP) (Homo sapiens, UniProt P48147); test: PREP enzymatic activity assay, Z-Gly-Pro-AMC; assay type: biochemical
T2 sequence (P48147 1-710): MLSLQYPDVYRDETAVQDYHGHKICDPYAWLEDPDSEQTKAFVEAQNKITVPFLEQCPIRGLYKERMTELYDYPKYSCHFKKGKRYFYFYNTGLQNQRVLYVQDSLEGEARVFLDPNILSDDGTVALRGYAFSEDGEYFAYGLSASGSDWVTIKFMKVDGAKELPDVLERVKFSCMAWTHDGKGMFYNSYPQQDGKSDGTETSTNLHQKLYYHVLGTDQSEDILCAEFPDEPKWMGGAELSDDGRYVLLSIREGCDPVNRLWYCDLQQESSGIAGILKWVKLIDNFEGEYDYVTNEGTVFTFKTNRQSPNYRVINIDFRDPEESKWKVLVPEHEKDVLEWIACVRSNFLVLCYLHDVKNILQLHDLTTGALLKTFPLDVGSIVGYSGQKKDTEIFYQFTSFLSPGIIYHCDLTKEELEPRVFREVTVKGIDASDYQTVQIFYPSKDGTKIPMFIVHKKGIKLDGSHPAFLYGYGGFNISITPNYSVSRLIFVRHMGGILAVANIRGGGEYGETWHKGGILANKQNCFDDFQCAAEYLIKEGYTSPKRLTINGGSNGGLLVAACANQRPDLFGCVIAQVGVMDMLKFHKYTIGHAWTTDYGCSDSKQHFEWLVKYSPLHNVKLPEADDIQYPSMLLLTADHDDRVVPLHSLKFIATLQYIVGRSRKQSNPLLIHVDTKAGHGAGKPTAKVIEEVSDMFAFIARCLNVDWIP

DPPIV = molecular target: T3, DPPIV (Mus musculus, UniProt P28843); test: DPPIV enzymatic activity in mouse plasma (H-Gly-Pro-AMC); assay type: biochemical, C57BL/6 mouse; conditions: H-Gly-Pro-AMC substrate
T3 construct: from tissue; host or cells: C57BL/6 mouse plasma (EDTA)
Protocol: Approximately 500 μL of whole blood from one C57BL/6 mouse was harvested into BD Microtainer® tubes (K2) EDTA (#365974, Becton Dickinson and Co.) via terminal cardiac puncture. The blood sample was immediately centrifuged at approximately 9000 g at 4° C. for 5 minutes. Plasma was separated and stored at −80° C. in aliquots of 300 μL. To assay baseline DPPIV enzymatic exopeptidase activity, 5 μL of thawed, mouse plasma was diluted (1:5) in buffer (100 mM Tris-HCl, 400 mM NaCl, 50 mM salicylic acid, 1 mM EDTA, pH 7.5) and mixed with 35 μL of the same buffer before being pre-incubated with different concentrations of 10 μL of test compounds or DMSO vehicle for 15 minutes at 37° C. in 96-well black plates (Nunc, #237108). After pre-incubation, 50 μL of 200 μM dipeptide substrate H-Gly-Pro-AMC (Bachem, # L-1225) was added to the mixture. The assay was performed for 1 hour at 37° C. 7-Amino-4-Methylcoumarin (AMC) release was detected measuring fluorescence at an excitation wavelength of 360 nm and an emission wavelength of 460 nm using a Multifunction Microplate Reader (Synergy 4, Biotek). All measurements were carried out at least in duplicate.

FAPα = molecular target: T4, FAPα (Mus musculus, UniProt P97321); test: FAPα enzymatic activity in mouse plasma (PRXS-AMC); assay type: biochemical, C57BL/6 mouse; conditions: PRXS-AMC substrate, read-out: mouse plasma FAPα (PRXS-AMC) (exo IC50)
T4 construct: from tissue; host or cells: C57BL/6 mouse plasma (EDTA)
T4 sequence (P97321 24-761 limits assumed): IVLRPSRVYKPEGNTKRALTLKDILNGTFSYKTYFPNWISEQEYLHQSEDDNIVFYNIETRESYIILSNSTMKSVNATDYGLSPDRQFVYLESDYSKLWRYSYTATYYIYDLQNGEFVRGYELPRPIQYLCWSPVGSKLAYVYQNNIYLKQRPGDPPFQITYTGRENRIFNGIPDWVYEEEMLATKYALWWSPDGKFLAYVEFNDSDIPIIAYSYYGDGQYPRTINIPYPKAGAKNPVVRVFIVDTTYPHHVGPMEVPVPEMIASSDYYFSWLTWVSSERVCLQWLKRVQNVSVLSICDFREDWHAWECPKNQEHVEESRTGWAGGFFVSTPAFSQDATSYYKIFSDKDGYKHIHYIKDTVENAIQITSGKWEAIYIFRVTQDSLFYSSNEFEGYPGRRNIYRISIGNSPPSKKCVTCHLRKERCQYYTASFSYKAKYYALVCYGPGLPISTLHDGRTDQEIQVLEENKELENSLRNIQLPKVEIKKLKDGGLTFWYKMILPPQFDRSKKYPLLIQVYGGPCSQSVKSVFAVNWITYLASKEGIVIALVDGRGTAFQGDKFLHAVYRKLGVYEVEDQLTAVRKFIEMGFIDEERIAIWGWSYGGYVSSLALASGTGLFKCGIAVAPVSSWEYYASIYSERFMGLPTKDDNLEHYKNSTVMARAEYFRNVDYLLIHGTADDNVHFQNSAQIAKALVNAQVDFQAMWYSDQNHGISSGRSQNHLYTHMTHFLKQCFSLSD
Protocol: Approximately 500 μL of whole blood from one C57BL/6 mouse was harvested into BD Microtainer® tubes (K2) EDTA (#365974, Becton Dickinson and Co.) via terminal cardiac puncture. The blood sample was immediately centrifuged at approximately 9000 g at 4° C. for 5 minutes. Plasma was separated and stored at −80° C. in aliquots of 300 μL. To assay baseline FAPα enzymatic exopeptidase activity, 5 μL of thawed, plasma was diluted (1:5) with cFAP buffer (100 mM Tris-HCl, 400 mM NaCl, 50 mM salicylic acid, 1 mM EDTA, pH 7.5) and mixed with 35 μL of the same buffer before being pre-incubated with different concentrations of 10 μL of test compounds or DMSO vehicle for 15 minutes at 37° C. in 96-well black plates (Nunc, #237108). After pre-incubation, 50 μL of 200 μM PRXS-AMC were added to the mixture. The assay was performed for 1 hour at 37° C. protected from light. 7-Amino-4-Methylcoumarin (AMC) release was detected measuring fluorescence at an excitation wavelength of 380 nm and an emission wavelength of 460 nm using a Multifunction Microplate Reader (Synergy 4, Biotek). All measurements were carried out at least as a single point.

[4] = molecular target: T5, recombinant human DPPIV (rhDPPIV) (Homo sapiens, UniProt P27487); test: DPPIV enzymatic activity assay, H-Gly-Pro-pNA; assay type: biochemical
T5 construct: purchased R&S system (so in the source)
T5 sequence (P27487 whole entry): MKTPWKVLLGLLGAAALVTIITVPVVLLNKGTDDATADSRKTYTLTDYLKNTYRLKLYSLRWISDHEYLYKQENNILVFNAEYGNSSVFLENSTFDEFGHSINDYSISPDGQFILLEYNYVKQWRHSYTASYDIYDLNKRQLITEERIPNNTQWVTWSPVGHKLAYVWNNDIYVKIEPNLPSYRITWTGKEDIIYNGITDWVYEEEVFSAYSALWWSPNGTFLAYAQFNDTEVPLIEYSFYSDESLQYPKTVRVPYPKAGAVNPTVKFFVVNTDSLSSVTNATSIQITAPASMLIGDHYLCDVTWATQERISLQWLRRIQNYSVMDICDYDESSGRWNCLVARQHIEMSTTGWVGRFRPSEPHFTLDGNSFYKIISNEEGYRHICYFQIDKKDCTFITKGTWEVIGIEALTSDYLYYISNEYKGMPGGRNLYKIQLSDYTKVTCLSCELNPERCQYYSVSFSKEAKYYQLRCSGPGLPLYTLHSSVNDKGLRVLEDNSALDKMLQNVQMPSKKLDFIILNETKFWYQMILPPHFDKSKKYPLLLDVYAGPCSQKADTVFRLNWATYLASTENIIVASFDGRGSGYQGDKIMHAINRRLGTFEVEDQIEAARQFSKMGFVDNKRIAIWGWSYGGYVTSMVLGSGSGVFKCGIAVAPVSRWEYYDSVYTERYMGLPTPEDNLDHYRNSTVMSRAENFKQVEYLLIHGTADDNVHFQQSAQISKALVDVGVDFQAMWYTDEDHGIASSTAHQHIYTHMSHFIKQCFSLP

T3 sequence (P28843 37-760 limits assumed): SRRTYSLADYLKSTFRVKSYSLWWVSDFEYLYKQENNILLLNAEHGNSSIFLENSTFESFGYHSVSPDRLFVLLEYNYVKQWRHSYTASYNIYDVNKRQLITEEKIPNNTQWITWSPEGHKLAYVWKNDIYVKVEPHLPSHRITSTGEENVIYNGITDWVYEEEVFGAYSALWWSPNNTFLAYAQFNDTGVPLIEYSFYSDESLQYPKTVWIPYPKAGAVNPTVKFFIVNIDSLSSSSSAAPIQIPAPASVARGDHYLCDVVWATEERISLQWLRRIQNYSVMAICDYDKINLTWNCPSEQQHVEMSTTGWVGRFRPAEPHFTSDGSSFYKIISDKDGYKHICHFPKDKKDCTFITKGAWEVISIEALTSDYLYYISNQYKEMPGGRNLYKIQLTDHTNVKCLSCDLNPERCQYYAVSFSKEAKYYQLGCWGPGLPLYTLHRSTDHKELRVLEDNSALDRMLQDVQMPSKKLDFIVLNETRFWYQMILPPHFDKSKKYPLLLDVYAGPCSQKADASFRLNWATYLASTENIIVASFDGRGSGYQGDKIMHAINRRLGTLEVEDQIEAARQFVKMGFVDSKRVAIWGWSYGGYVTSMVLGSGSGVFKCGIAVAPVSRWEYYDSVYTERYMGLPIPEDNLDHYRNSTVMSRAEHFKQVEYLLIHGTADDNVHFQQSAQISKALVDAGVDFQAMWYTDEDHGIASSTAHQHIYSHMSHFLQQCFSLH
T1 sequence (Q86TI2 whole entry): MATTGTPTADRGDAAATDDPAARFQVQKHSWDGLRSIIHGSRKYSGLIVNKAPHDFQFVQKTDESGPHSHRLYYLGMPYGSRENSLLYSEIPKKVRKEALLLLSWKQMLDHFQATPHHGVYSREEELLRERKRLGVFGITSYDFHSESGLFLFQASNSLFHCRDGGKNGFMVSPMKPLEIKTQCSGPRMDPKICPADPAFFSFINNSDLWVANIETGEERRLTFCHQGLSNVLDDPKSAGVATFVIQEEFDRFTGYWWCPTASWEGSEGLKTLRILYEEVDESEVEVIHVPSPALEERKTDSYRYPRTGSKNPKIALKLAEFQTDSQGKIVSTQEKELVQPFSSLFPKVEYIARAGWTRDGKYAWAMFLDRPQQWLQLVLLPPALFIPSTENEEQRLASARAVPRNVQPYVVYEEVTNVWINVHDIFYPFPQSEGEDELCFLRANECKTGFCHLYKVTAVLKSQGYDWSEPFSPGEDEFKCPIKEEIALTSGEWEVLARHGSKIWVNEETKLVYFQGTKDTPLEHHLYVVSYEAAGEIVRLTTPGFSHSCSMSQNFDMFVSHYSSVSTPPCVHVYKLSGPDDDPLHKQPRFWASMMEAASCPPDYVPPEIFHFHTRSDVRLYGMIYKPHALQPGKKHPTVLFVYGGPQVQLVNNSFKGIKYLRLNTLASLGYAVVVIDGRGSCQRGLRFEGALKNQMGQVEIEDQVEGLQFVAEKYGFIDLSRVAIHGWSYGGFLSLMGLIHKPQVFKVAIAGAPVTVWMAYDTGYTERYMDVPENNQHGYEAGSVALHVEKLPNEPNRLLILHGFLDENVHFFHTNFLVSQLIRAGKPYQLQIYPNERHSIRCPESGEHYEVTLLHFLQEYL

N#C[C@@H]1CC(F)(F)CN1C(=O)CNC(=O)c1ccncc1NCc1ccc(F)cc1 [Compound 2, (S)—N-(2-(2-cyano-4,4-difluoropyrrolidin-1-yl)-2-oxoethyl)-3-((4-fluorobenzyl)amino)isonicotinamide]
IC50 [1]: > 10 µM
IC50 [2]: > 10 µM
IC50 ([3]; Table 3A): > 10 µM
IC50 ([3]; Table 3B): > 10 µM
IC50 (DPPIV): < 10 µM
IC50 (FAPα): < 1 µM
IC50 ([4]; Table 3A): > 10 µM
IC50 ([4]; Table 3B): > 10 µM

COc1ccc(C(=O)Nc2cnccc2C(=O)NCC(=O)N2CC(F)(F)C[C@H]2C#N)cc1 [Compound 3, (S)—N-(2-(2-cyano-4,4-difluoropyrrolidin-1-yl)-2-oxoethyl)-3-(4-methoxybenzamido)isonicotinamide]
IC50 [1]: 1 to 10 µM
IC50 [2]: 1 to 10 µM
IC50 ([3]; Table 3A): > 10 µM
IC50 ([3]; Table 3B): > 10 µM
IC50 (DPPIV): 1 to 10 µM
IC50 (FAPα): < 1 µM
IC50 ([4]; Table 3A): 1 to 10 µM
IC50 ([4]; Table 3B): 1 to 10 µM

N#C[C@@H]1CC(F)(F)CN1C(=O)CNC(=O)c1ccncc1NC(=O)COc1ccc(Cl)c(F)c1 [Compound 5, (S)-3-(2-(4-chloro-3-fluorophenoxy)acetamido)-N-(2-(2-cyano-4,4-difluoropyrrolidin-1-yl)-2-oxoethyl)isonicotinamide]
IC50 [1]: 1 to 10 µM
IC50 [2]: 1 to 10 µM
IC50 ([3]; Table 3A): > 10 µM
IC50 ([3]; Table 3B): > 10 µM
IC50 (DPPIV): < 1 µM
IC50 (FAPα): < 1 µM
IC50 ([4]; Table 3A): 1 to 10 µM
IC50 ([4]; Table 3B): 1 to 10 µM

N#C[C@@H]1CC(F)(F)CN1C(=O)CNC(=O)c1ccncc1Cc1ccccc1F [Compound 7, (S)—N-(2-(2-cyano-4,4-difluoropyrrolidin-1-yl)-2-oxoethyl)-3-(2-fluorobenzyl)isonicotinamide]
IC50 [1]: 1 to 10 µM
IC50 [2]: 1 to 10 µM
IC50 ([3]; Table 3A): 1 to 10 µM
IC50 ([3]; Table 3B): 1 to 10 µM
IC50 (DPPIV): < 10 µM
IC50 (FAPα): < 1 µM
IC50 ([4]; Table 3A): > 10 µM
IC50 ([4]; Table 3B): > 10 µM

N#C[C@@H]1CC(F)(F)CN1C(=O)CNC(=O)c1ccncc1Cc1ccc(F)cc1 [Compound 8, (S)—N-(2-(2-cyano-4,4-difluoropyrrolidin-1-yl)-2-oxoethyl)-3-(4-fluorobenzyl)isonicotinamide]
IC50 [1]: 1 to 10 µM
IC50 [2]: 1 to 10 µM
IC50 ([3]; Table 3A): > 10 µM
IC50 ([3]; Table 3B): > 10 µM
IC50 (DPPIV): < 10 µM
IC50 (FAPα): < 1 µM
IC50 ([4]; Table 3A): > 10 µM
IC50 ([4]; Table 3B): > 10 µM

N#C[C@@H]1CC(F)(F)CN1C(=O)CNC(=O)c1ccncc1/C=C/c1ccc(Cl)cc1 [Compound 9, (S,E)-3-(4-chlorostyryl)-N-(2-(2-cyano-4,4-difluoropyrrolidin-1-yl)-2-oxoethyl)isonicotinamide]
IC50 [1]: < 1 µM
IC50 [2]: < 1 µM
IC50 ([3]; Table 3A): > 10 µM
IC50 ([3]; Table 3B): > 10 µM
IC50 (DPPIV): < 10 µM
IC50 (FAPα): < 1 µM
IC50 ([4]; Table 3A): > 10 µM
IC50 ([4]; Table 3B): > 10 µM

From US20200216417A1, “INHIBITORS OF FIBROBLAST ACTIVATION PROTEIN” (Praxis Biotech LLC, priority 2019, published 2020)
